Experimental data taken from US20260130933A1, “PHARMACEUTICAL COMPOSITION FOR PREVENTION OR TREATMENT OF NEPHROPATHY AND/OR DIABETES MELLITUS, COMPRISING ENAVOGLIFLOZIN” (DAEWOONG PHARMACEUTICAL CO., LTD., priority 2022, published 2026).

Experiment: Example 2: phase 3 trial, enavogliflozin 0.3 mg vs dapagliflozin 10 mg once a day for 24 weeks added to metformin in patients with type 2 diabetes (same efficacy, exploratory and safety endpoints)
Format: in vivo, human
Experimental: Subjects who met the inclusion/exclusion criteria were administered a placebo of the clinical trial drug under single-blind (subject blinding) conditions during a 2-week run-in period while continuing to receive metformin. […] The randomized subjects were administered two tablets of the clinical trial drug for each administration group once a day, and then visited the institution at weeks 6, 12, 18, and 24 during the 24-week administration period to conduct efficacy and safety evaluations.
• 1. Change in HbA1c at week 24 after administration of clinical trial drug compared to Visit 2 (randomization)
• 1. Change in HbA1c at each time point of weeks 6, 12, and 18 after administration of clinical trial drug compared to Visit 2 (randomization) • 2. Change in FPG at each time point of weeks 6, 12, 18, and 24 after administration of clinical trial drug compared to Visit 2 (randomization) • 3. Proportion of subjects achieving HbA1c<7% at each time point of weeks 6, 12, 18, and 24 after administration of clinical trial drug • 4. Proportion of subjects achieving HbA1c<6.5% at each time point of weeks 6, 12, 18, and 24 after administration of clinical trial drug • 5. Proportion of subjects achieving therapeutic response (HbA1c change (HbA1c at Visit 2-HbA1c at each evaluation time point)>0.5% or HbA1c<7% at each evaluation time point compared to Visit 2 (randomization)) at each time point of weeks 6, 12, 18 and 24 after administration of clinical trial drug
• 1. Change in fasting c-peptide at each time point of weeks 6, 12, 18, and 24 after administration of clinical trial drug compared to Visit 2 (randomization) • 2. Change in body weight at each time point of weeks 6, 12, 18, and 24 after administration of clinical trial drug compared to Visit 2 (randomization) • 3. Change in fasting lipid concentration (total cholesterol, LDL-C, HDL-C, and triglycerides) at each time point of weeks 6, 12, 18, and 24 after administration of clinical trial drug compared to Visit 2 (randomization) • 4. Changes in systolic or diastolic blood pressure at each time point of weeks 6, 12, 18, and 24 after administration of clinical trial drug compared to Visit 2 (randomization) • 5. Changes in β-cell function and insulin resistance measured by HOMA-β and HOMA-IR at each time point of weeks 6, 12, 18, and 24 after administration of clinical trial drug compared to Visit 2 (randomization) • 6. Changes in renal function-related indicators (UACR, UGCR) measured by UACR at each time point of weeks 6, 12, 18, and 24 after administration of clinical trial drug compared to Visit 2 (randomization) • 7. Changes in obesity-related indicators (adiponectin, leptin) at each time point of weeks 6, 12, 18, and 24 after administration of clinical trial drug compared to Visit 2 (randomization)

[1] = Week 18, mPPS1, enavogliflozin minus dapagliflozin
[2] = Week 18, mPPS2, enavogliflozin minus dapagliflozin
[3] = Week 24, PPS, enavogliflozin minus dapagliflozin

## OC[C@H]1O[C@@H](c2cc(Cc3ccc(C4CC4)cc3)c(Cl)c3c2CCO3)[C@H](O)[C@@H](O)[C@@H]1O [Enavogliflozin, (2S,3R,4R,5S,6R)-2-(7-chloro-6 (4-cyclopropylbenzyl)-2,3-dihydrobenzofuran-4-yl)-6-(hydroxymethyl)tetrahydro-2H-pyran-3,4,5-triol]
Week 18, mPPS1
  LDL-C, Mean (SD): 85.75(29.78) mg/dL
  LDL-C, Median: 77.50 mg/dL
  Triglycerides change from baseline, ANCOVA LS mean (SE): −4.99(5.99) mg/dL
  Triglycerides change from baseline, Mean (SD): −2.70(78.86) mg/dL
  Triglycerides change from baseline, Median: -2.50 mg/dL
  Triglycerides, Mean (SD): 118.10(55.93) mg/dL
  Triglycerides, Median: 108.00 mg/dL
[1]
  HDL-C change from baseline, LS mean difference: -0.62 mg/dL
  LDL-C change from baseline, LS mean difference: -1.15 mg/dL
  triglycerides change from baseline, LS mean difference: -6.87 mg/dL
Week 18, mPPS2
  Diastolic blood pressure change from baseline, ANCOVA LS mean (SE): −4.80 mmHg
  Diastolic blood pressure change from baseline, Mean (SD): −5.05 mmHg
  Diastolic blood pressure change from baseline, Median: −5.00 mmHg
  Diastolic blood pressure, Mean (SD): 71.85 mmHg
  Diastolic blood pressure, Median: 71.00 mmHg
  Systolic blood pressure change from baseline, ANCOVA LS mean (SE): −6.69(1.12) mmHg
  Systolic blood pressure change from baseline, Mean (SD): −7.04(10.51) mmHg
  Systolic blood pressure change from baseline, Median: −9.00 mmHg
  Systolic blood pressure, Mean (SD): 122.70(12.89) mmHg
  Systolic blood pressure, Median: 122.00 mmHg
[2]
  diastolic blood pressure change from baseline, LS mean difference: −0.70 mmHg
  systolic blood pressure change from baseline, LS mean difference: −0.72 mmHg
Week 24, PPS
  Adiponectin change from baseline, ANCOVA LS mean (SE): 1.67 µg/mL
  Adiponectin change from baseline, Mean (SD): 1.72 µg/mL
  Adiponectin change from baseline, Median: 1.21 µg/mL
  Adiponectin, Mean (SD): 8.68 µg/mL
  Adiponectin, Median: 7.64 µg/mL
  HOMA-IR change from baseline, ANCOVA LS mean (SE): −1.85
  HOMA-IR change from baseline, Mean (SD): −1.69
  HOMA-IR change from baseline, Median: −1.06
  HOMA-IR, Mean (SD): 1.76
  HOMA-IR, Median: 1.48
  HOMA-β change from baseline, ANCOVA LS mean (SE): 6.94
  HOMA-β change from baseline, Mean (SD): 6.80
  HOMA-β change from baseline, Median: 4.00
  HOMA-β, Mean (SD): 52.32
  HOMA-β, Median: 42.00
  Leptin change from baseline, ANCOVA LS mean (SE): -2.40 ng/mL
  Leptin change from baseline, Mean (SD): -2.53 ng/mL
  Leptin change from baseline, Median: -1.77 ng/mL
  Leptin, Mean (SD): 9.68 ng/mL
  Leptin, Median: 7.45 ng/mL
  UACR change from baseline, ANCOVA LS mean (SE): -24.29 g/kg
  UACR change from baseline, Mean (SD): -18270 mg/kg
  UACR change from baseline, Median: -1.10 g/kg
  UACR, Mean (SD): 19930 mg/kg
  UACR, Median: 10.20 g/kg
  UGCR change from baseline, ANCOVA LS mean (SE): 60.48 mg/mg
  UGCR change from baseline, Mean (SD): 58.90 mg/mg
  UGCR change from baseline, Median: 56.43 mg/mg
  UGCR, Mean (SD): 60.43 mg/mg
  UGCR, Median: 57.88 mg/mg
[3]
  HOMA-IR change from baseline, LS mean difference: −0.53
  HOMA-β change from baseline, LS mean difference: −4.99
  UACR change from baseline, LS mean difference: -6.93 g/kg
  UGCR change from baseline, LS mean difference: 15.54 mg/mg
  leptin change from baseline, LS mean difference: -1.12 ng/mL
Week 24, mPPS1
  HDL-C change from baseline, ANCOVA LS mean (SE): 3.06(0.64) mg/dL
  HDL-C change from baseline, Mean (SD): 2.75(6.70) mg/dL
  HDL-C change from baseline, Median: 3.00 mg/dL
  HDL-C, Mean (SD): 53.69(10.72) mg/dL
  HDL-C, Median: 53.00 mg/dL
  LDL-C change from baseline, ANCOVA LS mean (SE): 1.64(1.92) mg/dL
  LDL-C change from baseline, Mean (SD): 0.88(17.04) mg/dL
  LDL-C change from baseline, Median: 3.00 mg/dL
  LDL-C, Mean (SD): 87.40(29.52) mg/dL
  LDL-C, Median: 84.00 mg/dL
  Triglycerides change from baseline, ANCOVA LS mean (SE): −5.07(5.14) mg/dL
  Triglycerides change from baseline, Mean (SD): −2.47(76.88) mg/dL
  Triglycerides change from baseline, Median: 0.00 mg/dL
